Reference: paper PMC8226839, “New Perspectives in the Antimicrobial Activity of the Amphibian Temporin B: Peptide Analogs Are Effective Inhibitors of Candida albicans Growth” (Journal of Fungi, 2021)
Where two headings read alike, the source gives them in different places. Square brackets hold non-standard residues; d marks the D form. Peptide text beside a SMILES is read from it.

How the values were obtained:
[1] = test system: C. albicans; experiment: Broth microdilution, impact of protease inactivation conditions (growth %); assay type: cell-based, Candida albicans; conditions: 0.125 µM protease alone + 100 °C, 15 min
[2] = test system: sessile C. albicans cells (biofilm); experiment: Survival of sessile cells of a 24 h old biofilm (CFU plating); assay type: cell-based, Candida albicans; conditions: 10 µg mL^−1, 24 h exposure; untreated growth control 100%
Experimental: (§1) At the time points 5 min, 6 h and 24 h, aliquots were taken and plated in appropriate dilutions onto PDA plates in duplicates to stimulate the growth of viable cells. The colony-forming units (CFU) were counted after incubation at 30 °C for 24 h. […] To determine the efficacy of the TB peptide analogs on sessile C. albicans cells, biofilm formation was induced by adding 100 μL of C. albicans (1 × 10^6 cells mL^−1) in 0.05 × PDB to each well of a 96-well, flat-bottom microtiter plate (Nunclon Delta, Thermo Fisher Scientific, Waltham, MA, USA) and incubating for 24 h at 30 °C. The formed biofilm was then evaluated microscopically for cell attachment and pseudo-hyphae formation before proceeding with peptide application. The serially diluted TB peptide analogs (in 0.05 × PDB) were added to the biofilm in 100 μL aliquots to reach a final volume of 200 μL per well. For the positive control, 10 µg mL^−1 Amphotericin B (Sigma-Aldrich, St. Louis, MO, USA) was used, while 0.05 × PDB was added to the growth control. After further incubation for 24 h at 30 °C, the biofilm was disrupted by vigorous pipetting, and 20 µL of the detached cells were mixed with 80 µL of 0.05 × PDB. […] The effectiveness of the TB peptide analogs to reduce biofilm formation was calculated by comparing the number of CFU at different peptide concentrations with that of the untreated growth control. […]

[3] = test system: Candida albicans; experiment: microbe, parasite or virus in culture
[4] = test system: C. albicans cells; assay type: cell-based, Candida albicans
Experimental: as §1

[5] = in vitro; assay type: cell-based; conditions: human, 3D Phenion OS-REp reconstructed epidermis model
Experimental: The TB peptide analogs were tested for their skin irritation potential in vitro using the three-dimensional (3D) Phenion® open-source reconstructed epidermis model (Henkel, Düsseldorf, Germany) with slight adaptation from Groeber et al. and Mewes et al. [22, 23] and the test guidelines 439 of the Organization for Economic Cooperation and Development (OECD) [24]. In brief, the epidermal tissue models were equilibrated in 6-well plates ([…] , Hamburg, Germany) with 1.5 mL of Phenion® OS_REp air-liquid interface (ALI) medium (Henkel, Düsseldorf, Germany) for 24 h at 37 °C, 5% (v/v) CO2. Then, the medium was replaced by fresh medium and 25 μL Dulbecco's phosphate-buffered saline (D-PBS) containing 50 μg of the peptide, respectively, was dispensed directly on top of the models and spread gently over the surface with sterile glass applicators. […] All samples and controls were prepared in triplicates. After incubation at 25 °C for 35 min, each model was thoroughly dipped six times in 1 L of D-PBS. […] From each tissue sample, 200 μL of the formazan extraction solution were transferred in duplicates to a 96-well microtiter plate and the optical density was measured in a multimode plate reader (FLUOstar Omega, BMG Labtech, Ortenberg, Germany) at a wavelength of 550 nm. The relative metabolic activity was calculated from two replicates per tissue and three tissues per assay.

[6] = test system: Candida albicans; conditions: 24 h
[7] = test system: Candida albicans 27700 (fluconazole-resistant clinical isolate); conditions: 27700 (fluconazole-resistant clinical isolate, 24 h)
[8] = test system: Candida glabrata; conditions: 24 h
[9] = test system: Candida parapsilosis; conditions: 24 h
[10] = test system: Staphylococcus aureus; conditions: 24 h
[11] = test system: IL-1α; experiment: Release of proinflammatory cytokine IL-1α from Phenion OS-REp model (ELISA); conditions: culture medium 24 h after 35 min exposure; 50 μg peptide per model (SDS 5% w/v)

Compound	viability at 35 min, 2000 µg/mL [5] [%]	IC90 [6] [nM]	IC90 [7] [nM]	IC90 [8] [nM]	IC90 [9] [nM]	IC90 [10] [µM]	also measured
Chymotrypsin	–	–	–	–	–	–	Growth [%] [1]: 76.1 ± 6.9%
C[C@@H]1[C@H](O)[C@@H](C)/C=C/C=C/C=C/C=C/C=C/C=C/C=C/[C@H](O[C@@H]2O[C@H](C)[C@@H](O)[C@H](N)[C@@H]2O)C[C@@H]2O[C@](O)(C[C@@H](O)C[C@@H](O)[C@H](O)CC[C@@H](O)C[C@@H](O)CC(=O)O[C@H]1C)C[C@H](O)[C@H]2C(=O)O [Amphotericin B]	–	–	–	–	–	–	CFU [%] [2]: 0 ± 0 %; IC90 [3]: 0.055 µg/mL; IC90 ([3]; 24 h): 60 nM
CC[C@H](C)[C@H](NC(=O)[C@@H]1CCCN1C(=O)[C@H](CC(C)C)NC(=O)[C@H](CC(C)C)NC(=O)[C@H](CCCCN)NC(=O)[C@@H](N)CCCCN)C(=O)N[C@H](C(=O)N[C@@H](CCCCN)C(=O)N[C@@H](CC(N)=O)C(=O)N[C@@H](CC(C)C)C(=O)N[C@@H](CC(C)C)C(=O)N[C@@H](CCCCN)C(=O)N[C@@H](CO)C(=O)N[C@@H](CC(C)C)C(=O)N[C@@H](CC(C)C)C(N)=O)C(C)C [TB_KKG6K] (H-KKLLPIVKNLLKSLL-NH2)	94.2 ± 2.9	1800	1800	1800	1800	3.6	killing (CFU) ([4]; 6 h): 100%
CC[C@H](C)[C@H](NC(=O)[C@@H]1CCCN1C(=O)[C@H](CC(C)C)NC(=O)[C@H](CC(C)C)NC(=O)[C@@H](CCCCN)NC(=O)[C@H](N)CCCCN)C(=O)N[C@H](C(=O)N[C@H](CCCCN)C(=O)N[C@@H](CC(N)=O)C(=O)N[C@@H](CC(C)C)C(=O)N[C@@H](CC(C)C)C(=O)N[C@H](CCCCN)C(=O)N[C@@H](CO)C(=O)N[C@@H](CC(C)C)C(=O)N[C@@H](CC(C)C)C(N)=O)C(C)C [D-Lys_TB_KKG6K] (H-[dK][dK]LLPIV[dK]NLL[dK]SLL-NH2)	91.4 ± 2.9	1800	1800	1800	1800	14.4	killing (CFU) ([4]; 24 h): 100%
CC[C@H](C)[C@H](NC(=O)[C@@H]1CCCN1C(=O)[C@H](CC(C)C)NC(=O)[C@H](CC(C)C)NC(=O)[C@H](CCCCN)NC(=O)[C@H](CCCCN)NC(=O)[C@H](CCCCN)NC(=O)[C@@H](N)CCCCN)C(=O)N[C@H](C(=O)N[C@@H](CC(N)=O)C(=O)N[C@@H](CC(C)C)C(=O)N[C@@H](CC(C)C)C(=O)N[C@@H](CO)C(=O)N[C@@H](CC(C)C)C(=O)N[C@@H](CC(C)C)C(N)=O)C(C)C [TB_KKG6K^scrambled] (H-KKKKLLPIVNLLSLL-NH2; N-terminus assumed)	–	1800	–	–	–	7.2	–
CCCCCCCCCCCCOS(=O)(=O)[O-].[Na+] [5% SDS, sodium dodecyl sulfate]	–	–	–	–	–	–	IL-1α [11]: 199.2 ± 47.7 pg/mL
